{
  "source": "ChEMBL document CHEMBL2157913",
  "about": "“Synthesis and evaluation of apoptosis induction of thienopyrimidine compounds on KRAS and BRAF mutated colorectal cancer cell lines” (Bioorg Med Chem, 2012)",
  "key": {"HeLa": {"tested_on": "HeLa", "experiment": "Induction of apoptosis in human HeLa cells expressing wild type KRAS and BRAF assessed as depolarization of mitochondrial membrane after 24 hrs by flow cytometry", "type": "functional, cell-based"}, "HCT-116": {"tested_on": "HCT-116", "experiment": "Induction of apoptosis in human HCT116 cells expressing KRAS mutant assessed as depolarization of mitochondrial membrane after 24 hrs by flow cytometry", "type": "functional, cell-based"}, "HT-29 [1]": {"tested_on": "HT-29", "experiment": "Induction of apoptosis in human HT-29 cells expressing BRAF mutant assessed as depolarization of mitochondrial membrane after 24 hrs by flow cytometry", "type": "functional, cell-based"}, "HT-29 [2]": {"tested_on": "HT-29", "experiment": "Induction of apoptosis in human HT-29 cells expressing BRAF mutant assessed as cell death at 200 uM after 10 mins by flow cytometry", "type": "functional, cell-based"}, "HT-29 [3]": {"tested_on": "HT-29", "experiment": "Induction of apoptosis in human HT-29 cells expressing BRAF mutant assessed as activation of caspase-3 at 200 uM after 10 mins by flow cytometry relative to control", "type": "functional"}, "[4]": {"conditions": "Homo sapiens, HeLa, 24 h, read-out: IC50"}, "[5]": {"conditions": "Homo sapiens, HCT-116, 24 h, read-out: IC50"}, "[6]": {"conditions": "Homo sapiens, HT-29, 24 h, read-out: IC50"}},
  "note": "Activity calls are given as the source filed them. The calls are words filed in the database; no cut-off is given here.",
  "data": [
    {"smiles": "COc1ccc(Nc2ncnc3sc4ccccc4c23)cc1", "values": [
      {"measurement": "IC50", "setting": "HeLa; [4]", "value": 109, "unit": "µM"},
      {"measurement": "IC50", "setting": "HCT-116; [5]", "value": 92, "unit": "µM"},
      {"measurement": "IC50", "setting": "HT-29 [1]; [6]", "value": 117, "unit": "µM"},
      {"measurement": "Activity", "setting": "HT-29 [2]", "value": "Active"},
      {"measurement": "fold change (FC)", "setting": "HT-29 [3]", "value": 10}
    ]},
    {"smiles": "c1ccc(Nc2ncnc3c2sc2ccccc23)cc1", "values": [
      {"measurement": "IC50", "setting": "HeLa; hela", "value": "Not Active"},
      {"measurement": "IC50", "setting": "HCT-116; hct-116", "value": "Not Active"},
      {"measurement": "IC50", "setting": "HT-29 [1]; ht-29", "value": "Not Active"}
    ]},
    {"smiles": "Cc1ccccc1CNc1ncnc2c1sc1ccccc12", "values": [
      {"measurement": "IC50", "setting": "HeLa; hela", "value": "Not Active"},
      {"measurement": "IC50", "setting": "HCT-116; hct-116", "value": "Not Active"},
      {"measurement": "IC50", "setting": "HT-29 [1]; ht-29", "value": "Not Active"}
    ]},
    {"smiles": "c1ccc(CNc2ncnc3sc4ccccc4c23)cc1", "values": [
      {"measurement": "IC50", "setting": "HeLa; [4]", "value": 113, "unit": "µM"},
      {"measurement": "IC50", "setting": "HCT-116; [5]", "value": "> 130", "unit": "µM"},
      {"measurement": "IC50", "setting": "HT-29 [1]; [6]", "value": 126, "unit": "µM"}
    ]},
    {"smiles": "Cc1ccccc1Nc1ncnc2sc3ccccc3c12", "values": [
      {"measurement": "IC50", "setting": "HeLa; [4]", "value": 129, "unit": "µM"},
      {"measurement": "IC50", "setting": "HCT-116; [5]", "value": 101, "unit": "µM"},
      {"measurement": "IC50", "setting": "HT-29 [1]; [6]", "value": 120, "unit": "µM"},
      {"measurement": "Activity", "setting": "HT-29 [2]", "value": "Active"},
      {"measurement": "fold change (FC)", "setting": "HT-29 [3]", "value": 10}
    ]},
    {"smiles": "COc1ccccc1CNc1ncnc2c1sc1ccccc12", "values": [
      {"measurement": "IC50", "setting": "HeLa; [4]", "value": 129, "unit": "µM"},
      {"measurement": "IC50", "setting": "HCT-116; hct-116", "value": "Not Active"},
      {"measurement": "IC50", "setting": "HT-29 [1]; ht-29", "value": "Not Active"}
    ]},
    {"smiles": "COc1ccccc1Nc1ncnc2sc3ccccc3c12", "values": [
      {"measurement": "IC50", "setting": "HeLa; [4]", "value": "> 130", "unit": "µM"},
      {"measurement": "IC50", "setting": "HCT-116; hct-116", "value": "Not Active"},
      {"measurement": "IC50", "setting": "HT-29 [1]; ht-29", "value": "Not Active"},
      {"measurement": "Activity", "setting": "HT-29 [3]", "value": "Active"}
    ]},
    {"smiles": "COc1ccc(CNc2ncnc3c2sc2ccccc23)cc1", "values": [
      {"measurement": "IC50", "setting": "HeLa; [4]", "value": 118, "unit": "µM"},
      {"measurement": "IC50", "setting": "HCT-116; hct-116", "value": "Not Active"},
      {"measurement": "IC50", "setting": "HT-29 [1]; ht-29", "value": "Not Active"}
    ]},
    {"smiles": "c1ccc(Nc2ncnc3sc4ccccc4c23)cc1", "values": [
      {"measurement": "IC50", "setting": "HeLa; [4]", "value": "> 130", "unit": "µM"},
      {"measurement": "IC50", "setting": "HCT-116; hct-116", "value": "Not Active"},
      {"measurement": "IC50", "setting": "HT-29 [1]; ht-29", "value": "Not Active"},
      {"measurement": "Activity", "setting": "HT-29 [3]", "value": "Active"}
    ]},
    {"smiles": "Cc1ccccc1CNc1ncnc2sc3ccccc3c12", "values": [
      {"measurement": "IC50", "setting": "HeLa; [4]", "value": "> 130", "unit": "µM"},
      {"measurement": "IC50", "setting": "HCT-116; hct-116", "value": "Not Active"},
      {"measurement": "IC50", "setting": "HT-29 [1]; ht-29", "value": "Not Active"}
    ]},
    {"smiles": "c1ccc(CNc2ncnc3c2sc2ccccc23)cc1", "values": [
      {"measurement": "IC50", "setting": "HeLa; [4]", "value": 105, "unit": "µM"},
      {"measurement": "IC50", "setting": "HCT-116; hct-116", "value": "Not Active"},
      {"measurement": "IC50", "setting": "HT-29 [1]; ht-29", "value": "Not Active"}
    ]},
    {"smiles": "Cc1ccccc1Nc1ncnc2c1sc1ccccc12", "values": [
      {"measurement": "IC50", "setting": "HeLa; [4]", "value": 77.7, "unit": "µM"},
      {"measurement": "IC50", "setting": "HCT-116; [5]", "value": 121, "unit": "µM"},
      {"measurement": "IC50", "setting": "HT-29 [1]; [6]", "value": 127, "unit": "µM"}
    ]},
    {"smiles": "CN(C)c1ncnc2sc3ccccc3c12", "values": [
      {"measurement": "IC50", "setting": "HeLa; [4]", "value": 102, "unit": "µM"},
      {"measurement": "IC50", "setting": "HCT-116; hct-116", "value": "Not Active"},
      {"measurement": "IC50", "setting": "HT-29 [1]; ht-29", "value": "Not Active"}
    ]}
  ]
}
